Test [1] deals with T1, baculovirus-expressed human trkA cytoplasmic domain (Homo sapiens, UniProt P04629).
T1 construct: baculovirus-expressed human trkA cytoplasmic domain; made in house; host or cells: baculovirus expression system
Put plainly: Inhibition of trkA tyrosine kinase activity (ELISA-based assay). The test is classed as biochemical. The settings on record: for trkA kinase activity % Inh. @ 300 nM (values in parentheses): 300 nM compound; for IC50: 40 μM ATP. The protocol:
Selected cyclic substituted fused pyrrolocarbazole and isoindolone compounds were tested for their ability to inhibit the kinase activity of baculovirus-expressed human trkA cytoplasmic domain using an ELISA-based assay as previously described (Angeles et al., Anal. Biochem. 236: 49-55, 1996). Briefly, the 96-well microtiter plate was coated with substrate solution (recombinant human phospholipase C-γ1/glutathione S-transferase fusion protein (Rotin et al., EMBO J., 11: 559-567, 1992). Inhibition studies were performed in 100 μl assay mixtures containing 50 mM Hepes, pH 7.4, 40 μM ATP, 10 mM MnCl2, 0.1% BSA, 2% DMSO, and various concentrations of inhibitor. The reaction was initiated by addition of trkA kinase and allowed to proceed for 15 minutes at 37° C. An antibody to phosphotyrosine (UBI) was then added, followed by a secondary enzyme-conjugated antibody, alkaline phosphatase-labelled goat antII-mouse IgG (Bio-Rad). The activity of the bound enzyme was measured via an amplified detection system (Gibco-BRL). Inhibition data were analyzed using the sigimoidal dose-response (variable slope) equation in GraphPad Prism.

Test [2] addresses T2, VEGF receptor (human flk-1, KDR, VEGFR2) kinase domain (Homo sapiens, UniProt P35968).
T2 construct: VEGF receptor (human flk-1, KDR, VEGFR2) kinase domain; made in house; host or cells: baculovirus expression system
In words: Inhibition of vascular endothelial growth factor receptor kinase activity (ELISA). The test is classed as biochemical. The settings on record: for inhibition at 0.3 µM: read-out: VEGF receptor kinase activity % Inh. @ 300 nM (values in parentheses). The protocol: Cyclic substituted fused pyrrolocarbazole and isoindolone compounds were examined for their inhibitory effects on the kinase activity of baculovirus-expressed VEGF receptor (human flk-1, KDR, VEGFR2) kinase domain using the procedure described for the trkA kinase ELISA assay described above. The kinase reaction mixture, consisting of 50 mM Hepes, pH 7.4, 40 μM ATP, 10 mM MnCl2, 0.1% BSA, 2% DMSO, and various concentrations of inhibitor, was transferred to PLC-γ/GST-coated plates. VEGFR kinase was added and the reaction was allowed to proceed for 15 min. at 37 C. Detection of phosphorylated product was accomplished by addition of antII-phosphotyrosine antibody (UBI). A secondary enzymeconjugated antibody was delivered to capture the antibody-phosphorylated PLC-γ/GST complex. The activity of the bound enzyme was measured via an amplified detection system (Gibco-BRL). Inhibition data were analyzed using the sigmoidal dose-response (variable slope) equation in GraphPad Prism.

In test [3] the target is T3, PDGFβ receptor kinase domain (recombinant human PDGFRβ) (Homo sapiens, UniProt P09619).
T3 construct: kinase activity of baculovirus-expressed PDGFβ receptor kinase domain; made in house; host or cells: baculovirus expression system
T3 sequence (P09619 600-962 limits assumed): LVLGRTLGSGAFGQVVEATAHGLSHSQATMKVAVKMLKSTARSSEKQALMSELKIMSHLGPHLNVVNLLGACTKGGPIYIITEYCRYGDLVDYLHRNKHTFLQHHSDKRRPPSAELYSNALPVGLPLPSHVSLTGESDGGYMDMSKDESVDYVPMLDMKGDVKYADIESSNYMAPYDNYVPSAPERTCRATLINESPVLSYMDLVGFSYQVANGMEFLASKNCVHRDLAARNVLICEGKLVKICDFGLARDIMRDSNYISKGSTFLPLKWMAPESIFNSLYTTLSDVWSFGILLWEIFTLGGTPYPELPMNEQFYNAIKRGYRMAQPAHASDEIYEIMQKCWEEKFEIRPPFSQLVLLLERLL
In words: Inhibition of platelet derived growth factor receptor kinase activity (ELISA). The settings on record: for inhibition at 0.3 µM: read-out: PDGFRβ % inh @ 300 nM (values in parentheses). The test is classed as biochemical. The method, then:
Cyclic substituted fused pyrrolocarbazole and isoindolone compounds were examined for their inhibitory effects on the kinase activity of baculovirus-expressed PDGFβ receptor kinase domain using the trkA kinase ELISA described above. Assays were performed in substrate (PLC-γ/GST)-coated 96-well microtiter plates. Each 100-μl reaction mixture contained 50 mM HEPES, pH 7.4, 20 μM ATP, 10 mM MnCl2, 0.1% BSA, 2% DMSO, and various concentrations of inhibitor. The reaction was initiated by addition of prephosphorylated recombinant human enzyme (10 ng/ml PDGFRβ) and allowed to proceed for 15 minutes at 37° C. The prephosphorylated enzyme was prepared prior to use by incubation of the kinase in buffer containing 20 μM ATP and 10 mM MnCl2 for 1 hour at 4° C. Detection of phosphorylated product was done by adding horseradish peroxidase (HRP)-conjugated antII-phosphotyrosine antibody (UBI). The HRP substrate solution containing 3,3′-5,5′-tetramethylbenzidine and hydrogen peroxide was later added and the plates were incubated for 10 minutes at room temperature. The reaction was quenched with acid and the resulting absorbance was read at 450 nm using a Microplate Bio-kinetics Reader (Bio-Tek Instrument EL 312e). Inhibition data were analyzed using the sigmoidal dose-response (variable slope) equation in GraphPad Prism.

The subject of test [4] is ChAT activity in dissociated rat embryonic spinal cord culture. Put plainly: Enhancement of spinal cord ChAT activity. The test is classed as cell-based. The source says:
As discussed above, CHAT is a specific biochemical marker for functional cholinergic neurons. Cholinergic neurons represent a major cholinergic input into the hippocampal formation, olfactory nucleus, interpeduncular nucleus, cortex, amygdala, and parts of the thalamus. In the spinal cord, the motor neurons are cholinergic neurons which contain CHAT (Phelps et al., J. Comp. Neurol. 273:459-472 (1988)). ChAT activity has been used to study the effects of neurotrophins (e.g., NGF or NT-3) on the survival and/or function of cholinergic neurons. The ChAT assay also serves as an indication of the regulation of ChAT levels within cholinergic neurons.
For example, in these assays, a compound was directly added to a dissociated spinal cord culture. Compounds which increased ChAT activity at least 120% of the control activity were considered active.
Methods: Fetal rat spinal cord cells were dissociated, and experiments were performed as described (Smith et al., J. Cell Biology 101:1608-1621 (1985); Glicksman et al., J. Neurochem. 61:210-221 (1993)). […] ChAT activity was measured after 2 days in vitro using a modification of the Fonnum procedure (Fonnum, J. Neurochem. 24:407-409 (1975)) according to McManaman et al. and Glicksman et al. (McManamnan et al., Developmental Biology 125:311-320 (1988); Glicksman et al., J. Neurochem., supra).

Test [5] deals with protein kinase C (UBI; mixed isozymes of a, b, g). In words: Inhibition of protein kinase C activity (Millipore Multiscreen TCA in-plate assay). The test is classed as biochemical. The protocol: Protein kinase C activity was assessed using the Millipore Multiscreen TCA “in-plate” assay as described in Pitt, A. M. and Lee, C. (J. Biomol. Screening, 1: 47-51, 1996). Assays were performed in 96-well Multiscreen-DP plates (Millipore). Each […] assay mixture contained 20 mM Hepes, pH 7.4, 10 mM MgCl2, 2.5 mM EGTA, 2.5 mM CaCl2, […] phosphatidyl serine, […] diolein, […] histone H-1 (Fluka), […] [γ-^32P]ATP, 1.5 ng protein kinase C (UBI; mixed isozymes of a, b, g), 0.1% BSA, 2% DMSO, and test cyclic substituted fused pyrrolocarbazole compound. The reaction was allowed to proceed for 10 min at 37° C., then quenched by adding ice cold 50% trichloroacetic acid. The plates were allowed to equilibrate for 30 min at 4° C., then washed with ice cold 25% TCA. Scintillation cocktail was added to the plates, and the radioactivity was determined using Wallac MicroBeta 1450 PLUS scintillation counter. The IC50 values were calculated by fitting the data to the sigmoidal dose-response (variable slope) equation in GraphPad Prism.

The target in test [6] is T4, trkA (NIH3T3 cells transfected with trkA) (Homo sapiens, UniProt P04629).
T4 construct: expressed in transfected cells; host or cells: NIH3T3
T4 sequence (P04629 33-796, species assumed): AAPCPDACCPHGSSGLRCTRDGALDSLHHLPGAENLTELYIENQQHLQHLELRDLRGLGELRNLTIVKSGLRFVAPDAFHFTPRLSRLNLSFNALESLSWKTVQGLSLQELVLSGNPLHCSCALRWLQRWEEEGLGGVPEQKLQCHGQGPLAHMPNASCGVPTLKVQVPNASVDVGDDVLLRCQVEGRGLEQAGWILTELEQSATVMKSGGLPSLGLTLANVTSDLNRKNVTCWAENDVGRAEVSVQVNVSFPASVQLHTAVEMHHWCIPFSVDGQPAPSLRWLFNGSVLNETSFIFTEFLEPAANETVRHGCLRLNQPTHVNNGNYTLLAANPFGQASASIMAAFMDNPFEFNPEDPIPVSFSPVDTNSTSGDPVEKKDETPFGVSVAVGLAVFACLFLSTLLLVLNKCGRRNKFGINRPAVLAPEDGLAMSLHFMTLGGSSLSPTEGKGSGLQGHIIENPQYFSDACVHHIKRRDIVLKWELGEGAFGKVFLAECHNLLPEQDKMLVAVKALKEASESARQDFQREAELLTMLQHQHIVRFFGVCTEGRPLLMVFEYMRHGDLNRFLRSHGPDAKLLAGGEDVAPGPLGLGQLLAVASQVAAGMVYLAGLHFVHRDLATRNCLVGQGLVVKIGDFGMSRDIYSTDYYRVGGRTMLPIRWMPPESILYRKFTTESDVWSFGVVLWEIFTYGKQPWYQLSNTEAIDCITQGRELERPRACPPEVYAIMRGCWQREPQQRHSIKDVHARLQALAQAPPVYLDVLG
In words: Inhibition of NGF-stimulated trk phosphorylation in a whole cell preparation. The test is classed as cell-based. The following applies: NGF 10 ng/ml; for Cell Score @ 100 nM (percent decrease in trk protein band): 100 nM compound; for Cell Score @ 1 uM (percent decrease in trk protein band): 1 uM compound. The method, then:
NIH3T3 cells transfected with trkA were grown in 100 mm dishes. Subconfluent cells were serum-starved by replacing media with serum-free 0.05% BSA-DMEM containing compound (100 nM and 1 μM) or DMSO (added to controls) for one hour at 37° C. NGF (Harlan/Bioproducts for Science) was then added to the cells at a concentration of 10 ng/ml for 5 minutes. Cells were lysed in buffer containing detergent and protease inhibitors. Clarified cell lysates were normalized to protein using BCA method and immunoprecipitated with antII-trk antibody. Polyclonal antII-trk antibody was prepared against a peptide corresponding to the 14 amino acids at the carboxy terminus of trk (Martin-Zanca et al., Mol. Cell. Biol. 9: 24-33, 1989). The immune complexes were collected on Protein A Sepharose beads (Sigma Chem. Co., St. Lois, Mo.), separated by SDS polyacrylamide gel electrophoresis (SDS-PAGE), and transferred to a polyvinylidene difluoride (PVDF) membrane. The membrane was immunoblotted with antII-phosphotyrosine antibody (UBI), followed by incubation with horseradish peroxidase coupled goat antII-mouse IgG (Bio-Rad Laboratories, Hercules, Calif.). Phosphorylated proteins were visualized using ECL (Arnersham Life Science, Inc., Arlington Heights, Ill.). The area of the trk protein band was measured and compared to NGF-stimulated control. The inhibition scoring system used, based on percent decrease in trk protein band, was as follows: 0=no decrease; 1=1-25%; 2=26-49%; 3=50-75%; 4=76-100%.

T2 sequence (P35968 834-1162 limits assumed): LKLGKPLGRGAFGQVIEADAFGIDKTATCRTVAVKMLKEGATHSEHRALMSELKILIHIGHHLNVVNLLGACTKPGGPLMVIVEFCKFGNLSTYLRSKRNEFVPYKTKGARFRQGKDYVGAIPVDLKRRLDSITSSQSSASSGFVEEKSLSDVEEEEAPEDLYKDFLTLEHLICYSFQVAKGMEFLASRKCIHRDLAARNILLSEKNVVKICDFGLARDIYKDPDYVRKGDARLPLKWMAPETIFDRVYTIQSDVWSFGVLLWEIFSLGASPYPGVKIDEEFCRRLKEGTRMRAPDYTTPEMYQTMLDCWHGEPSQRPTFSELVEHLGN
T1 sequence (P04629 440-796 limits assumed): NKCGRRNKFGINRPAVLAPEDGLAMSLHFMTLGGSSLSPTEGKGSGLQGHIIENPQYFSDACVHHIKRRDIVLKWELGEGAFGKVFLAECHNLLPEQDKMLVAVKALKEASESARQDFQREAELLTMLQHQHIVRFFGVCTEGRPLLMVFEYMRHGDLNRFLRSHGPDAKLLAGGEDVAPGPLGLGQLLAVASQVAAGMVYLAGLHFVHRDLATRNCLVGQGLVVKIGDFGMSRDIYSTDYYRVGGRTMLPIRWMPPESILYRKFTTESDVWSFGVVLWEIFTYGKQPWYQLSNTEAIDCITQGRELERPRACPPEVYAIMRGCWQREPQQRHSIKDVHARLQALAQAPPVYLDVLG

Consider `O=C1NCc2c1c1c(c3[nH]c4ccccc4c23)C(C2(O)CCCC2CN2CCOCC2)c2ccccc2-1` (mixture of isomers) [II-17], for which the “trkA kinase activity % Inh. @ 300 nM (values in parentheses)” value in test [1] is recorded as “(33) %”. In test [2] (300 nM compound), the “VEGF receptor kinase activity % Inh. @ 300 nM (values in parentheses)” value is recorded as “(33) %”. In addition, the “PDGFRβ % inh @ 300 nM (values in parentheses)” value in test [3] (300 nM compound) is “(47) %”.

Turning to `CC(C)(C)C(=O)OCC1(C2c3ccccc3-c3c4c(c5c([nH]c6ccccc65)c32)CNC4=O)CCCO1` (mixture of isomers) [II-20], the “Spinal Cord ChAT (% control) Activity at 30 nM” value in test [4] (30 nM compound) stood at 132 % control. Moreover, the “Spinal Cord ChAT (% control) Maximal Activity” value in test [4] (@ 500 nM) is 191 @ 500 nM % control. Moreover, the “trkA kinase activity % Inh. @ 300 nM (values in parentheses)” value in test [1] is reported as “(39) %”.

Broadly, the IC50 is the midpoint of a concentration-inhibition curve. Turning to `O=C1NCc2c1c1c(c3[nH]c4ccccc4c23)C(C2CCC(O)O2)c2ccccc2-1` (racemic) [II-23], the IC50 was found to be 644 nM in test [5], 19 nM in test [1], 79 nM in test [2] (40 μM ATP) and 648 nM in test [3] (20 μM ATP). Further, the “Cell Score @ 100 nM (percent decrease in trk protein band)” value in test [6] is on record as 2 (2=26-49%). Besides, the “Cell Score @ 1 uM (percent decrease in trk protein band)” value in test [6] is recorded as 4 (4=76-100%).

In the case of `COCCOC(=O)c1ccc2[nH]c3c4c(c5c(c3c2c1)CNC5=O)-c1ccccc1C4C1CCC(OCCOC)O1` (centres unmarked) [II-52], the IC50 in test [1] is 27 nM. Also, the inhibition at 0.3 µM in test [3] (300 nM compound) was found to be 45%. In test [6], the “Cell Score @ 100 nM (percent decrease in trk protein band)” value is given as 2 (2=26-49%) and the “Cell Score @ 1 uM (percent decrease in trk protein band)” value is listed as 3 (3=50-75%).

As for `CC1C=CC(C(O)C2c3ccccc3-c3c4c(c5c([nH]c6ccccc65)c32)CNC4=O)n2c(=O)n(-c3ccccc3)c(=O)n21` (centres unmarked) [II-64], half-maximal inhibition in test [1] (IC50) required 399 nM. Besides, the inhibition at 0.3 µM in test [2] (300 nM compound) amounted to 20%; in test [3] (300 nM compound), 29%.

In the case of `O=C1NCc2c1c1c(c3c2c2ccccc2n3CC2CC2)C(CC2CC2)c2ccccc2-1` (centres unmarked) [II-65], the “Protein kinase C activity, values in parentheses” value in test [5] (concentration not given) was “(20)”. This compound also had an IC50 in test [1] of 320 nM. The inhibition at 0.3 µM in test [2] (300 nM compound) is 26%; in test [3] (300 nM compound), 5%.

Take `COC(=O)[C@H]1CSC(CCn2c3ccccc3c3c4c(c5c(c32)Cc2ccccc2-5)C(=O)NC4)N1` (some centres unmarked) [II-67]: half-maximal inhibition in test [1] (IC50) was put at 555 nM. The inhibition at 0.3 µM in test [2] (300 nM compound) amounted to 65%; in test [3] (300 nM compound), 23%.

Compound `CCNC(=O)OCC1(C2c3ccccc3-c3c4c(c5c6ccccc6n(C(=O)NCC)c5c32)CNC4=O)CCCO1` (centres unmarked) [II-68] had an IC50 in test [1] of 245 nM. Further, the inhibition at 0.3 µM in test [2] (300 nM compound) worked out at 31%; in test [3] (300 nM compound) it was 0%.

On to `CCNC(=O)n1c2ccccc2c2c3c(c4c(c21)C(C1(CO)CCCO1)c1ccccc1-4)C(=O)NC3` (centres unmarked) [II-69], for which, in test [1], 24 nM corresponded to half-maximal inhibition (IC50). Besides, the values for the inhibition at 0.3 µM in test [2] (300 nM compound) and in test [3] (300 nM compound) were 49% and 18%, respectively.

(Values after US6841567B1, “Cyclic substituted fused pyrrolocarbazoles and isoindolones” (Cephalon, Inc., priority 1999, dated 2005).)
